In US8071103B2, “Pharmaceutical composition comprising a human GLP-1 mimetibody” (Centocor, Inc., priority 2006, dated 2011):
Where no end group is shown, it is not given here.

Key:
db/db mice = assay: Blood glucose after intravenous dosing in db/db mice; format: in vivo; conditions: 0.5-4 hours post-dosing
Description: Blood glucose was monitored 0.5, 1, 2, 3, and 4 hours post-dosing.

GLP-1 receptor [1] = biological target: T1, GLP-1 receptor (Mus musculus, UniProt O35659); assay: Food intake in GLP-1R−/− and wild type mice; format: in vivo; conditions: wild type mice, single iv, GLP-1 MMB 1 mg/kg, exendin-4 0.07 mg/kg
T1 construct: Male GLP-1R−/− and age matched wild type mice; from tissue; host or cells: whole animal (wild type mice; GLP-1R-/- mice as receptor-free control)
T1 sequence (O35659 22-463): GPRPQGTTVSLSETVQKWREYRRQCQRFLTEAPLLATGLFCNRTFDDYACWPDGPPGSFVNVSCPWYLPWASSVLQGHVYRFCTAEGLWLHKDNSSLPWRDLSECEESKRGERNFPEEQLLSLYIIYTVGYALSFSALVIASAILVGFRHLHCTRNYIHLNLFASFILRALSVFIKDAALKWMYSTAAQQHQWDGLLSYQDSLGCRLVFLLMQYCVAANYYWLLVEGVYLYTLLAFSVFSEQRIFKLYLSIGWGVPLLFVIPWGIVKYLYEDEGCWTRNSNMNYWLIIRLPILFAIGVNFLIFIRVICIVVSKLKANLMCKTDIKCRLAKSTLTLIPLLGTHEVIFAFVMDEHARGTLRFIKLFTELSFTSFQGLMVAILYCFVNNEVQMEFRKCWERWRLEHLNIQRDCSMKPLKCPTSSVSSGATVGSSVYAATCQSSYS
From the text: (§1) Materials/Methods: Animals: Male GLP-1R−/− and age matched wild type mice were randomized into three treatment groups (n=5) based on body weight and fasting blood glucose.

GLP-1 receptor [2] = assay: Food intake in GLP-1R−/− and wild type mice; format: in vivo; conditions: GLP-1R−/− mice, single iv, GLP-1 MMB 1 mg/kg, exendin-4 0.07 mg/kg
From the text: as §1

GLP-1 receptor [3] = biological target: T1, GLP-1 receptor; assay: Gastric emptying in GLP-1R−/− and wild type mice; format: in vivo; conditions: wild type mice, single iv, GLP-1 MMB 1 mg/kg, exendin-4 0.07 mg/kg
Description: as §1
(§2) Gastric Emptying: Mice were fasted overnight. The next morning mice were re-fed for 1 h, food intake was recorded and the mice were deprived of food for the rest of the study. Mice were dosed intravenously as discussed above. Two hours post-dosing mice were euthenized.
(§3) The stomach was exposed by laparotomy, ligated at both the pylorus and cardia and removed.
(§4) The stomach content wet weight was measured. Equation 1 was used to calculate the percent of food remaining in the stomach. (Stomach Content Wet Weight (g)/Food Intake (g))*100 Equation (1)

GLP-1 receptor [4] = assay: Gastric emptying in GLP-1R−/− and wild type mice; format: in vivo; conditions: GLP-1R−/− mice, single iv, GLP-1 MMB 1 mg/kg, exendin-4 0.07 mg/kg
Description: as §1, §2, §3, §4

RINm cells = assay: Insulin secretion in RINm cells; format: cell-based; conditions: peptides 0-5 nM, mimetibodies 5 or 50 nM, ELISA
Description: GLP-1 MMB causes insulin secretion in RINm cells. To test the effect of GLP-1 MMB in insulin secretion, RINm cells were treated with increasing concentrations of GLP-1 (7-36) peptide (0-5 nM), exendin-4 peptide (0-5 nM), or various GLP-1 mimetibodies (5 or 50 nM) and the amount of insulin secreted was measured via ELISA. All GLP-1 MMBs tested had activities in stimulating insulin secretion in RINm cells (FIG. 6).

GLP-1 receptor [5] = biological target: T1, GLP-1 receptor; assay: Glucose tolerance test (ipGTT) in GLP-1R−/− and wild type mice; format: in vivo; conditions: wild type mice, single iv, GLP-1 MMB 1 mg/kg, exendin-4 0.07 mg/kg
Description: as §1
Glucose tolerance test (ipGTT): Mice were fasted overnight and dosed intravenously as discussed above. Fasting glucose was measured via tail snips using a hand-held glucometer (LifeScan). At t=0 min, mice were dosed i.p. with D-glucose (1.0 mg/g, Sigma) and blood glucose was measured after 15, 30, 60, 90 and 120 min using tail vein blood

normal dogs = assay: Gastric emptying in normal dogs; format: in vivo, beagle dogs; conditions: relative to vehicle
Description: A gastric cannula was surgically implanted into female beagle dogs (10-15 kg) under general anesthesia and allowed to recover for at least 2 weeks. Dogs were fasted for 24 hours after which water was freely available. The gastric cannula was opened and gastric juice and food remnants were removed with 40-50 ml of lukewarm water. Groups of six dogs were dosed subcutaneously with lidamidine, an alpha2 agonist (0.63 mg/kg), 60 minutes before the meal, a positive control for delay of gastric emptying. […] Five minutes before the meal, the gastric cannula was opened to determine the amount of fluid present in stomach for baseline value and fluid was promptly reintroduced. Then a test meal consisting of 250 ml of a glucose solution (5 g/1) was administered via the cannula and allowed to remain in the stomach for 30 minutes. Gastric contents were drained from the stomach to measure total volume after 30 minutes. […] Glucose concentrations were evaluated for collected samples and used to determine the absolute amount of glucose remaining in the stomach at each time point. The percentage of glucose retained in the stomach was determined from the starting value and the concentration of glucose at each time point and plotted as a function of time. The time at which 50% of the gastric contents were retained was determined by fitting of the curves to a single exponential.

## CC[C@H](C)[C@H](NC(=O)[C@H](Cc1ccccc1)NC(=O)[C@H](CCC(=O)O)NC(=O)[C@H](CCCCN)NC(=O)[C@H](C)NC(=O)[C@H](C)NC(=O)[C@H](CCC(N)=O)NC(=O)CNC(=O)[C@H](CCC(=O)O)NC(=O)[C@H](CC(C)C)NC(=O)[C@H](Cc1ccc(O)cc1)NC(=O)[C@H](CO)NC(=O)[C@H](CO)NC(=O)[C@@H](NC(=O)[C@H](CC(=O)O)NC(=O)[C@H](CO)NC(=O)[C@@H](NC(=O)[C@H](Cc1ccccc1)NC(=O)[C@@H](NC(=O)CNC(=O)[C@H](CCC(=O)O)NC(=O)[C@H](C)NC(=O)[C@@H](N)Cc1c[nH]cn1)[C@@H](C)O)[C@@H](C)O)C(C)C)C(=O)N[C@@H](C)C(=O)N[C@@H](Cc1c[nH]c2ccccc12)C(=O)N[C@@H](CC(C)C)C(=O)N[C@H](C(=O)N[C@@H](CCCCN)C(=O)NCC(=O)N[C@@H](CCCNC(=N)N)C(N)=O)C(C)C [GLP-1 peptide]
db/db mice
  blood glucose: lowered blood glucose at 30 minutes

## exendin-4 [reference compound]
GLP-1 receptor [1]
  24 hour cumulative food intake compared to CNTO1996: statistically significant reduction
GLP-1 receptor [2]
  food intake: no effect
GLP-1 receptor [3]
  stomach content (percent of food remaining) 2 h after dosing compared to CNTO1996: statistically significant increase
GLP-1 receptor [4]
  gastric emptying: no effect
RINm cells
  insulin secretion in RINm cells: stimulates insulin release
GLP-1 receptor [5]
  AUC of ipGTT: statistically significant reduction

## GLP-1 (7-36) peptide: wide-type GLP-1 (7-36) peptide (HAEGTFTSDVSSYLEGQAAKEFIAWLVKGR; ends and bridges not checked; UniProt P01275 98-127, looked up)
RINm cells
  insulin secretion in RINm cells: stimulates insulin release

## CN=C(N)NC(=O)Nc1c(C)cccc1C [lidamidine]
Normal dogs
  gastric emptying: significant delay in gastric emptying
